Experimental data published in the supplement of paper PMC11061612.

Key:
Assay in all cases: Bliss excess, mean over the matrix (fraction); higher = more synergy
786-0 (Kidney Carcinoma) = tested on: 786-0 (Kidney Carcinoma)
Method in brief: (§1)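 Cell lines in DMEM/F12 or RPMI with 10% FBS were plated in 1536-well plates, held 24 hours at 37°C, 5% CO2, then given two-drug dose matrices for 72 hours (DMSO typically 0.2%). Viability was read by CellTiter-Glo 2.0 luminescence and scaled as inhibition from 0 (vehicle wells) to 1 (blank wells). Combination Emax is the second-highest inhibition in the matrix; Bliss excess is observed combination effect minus expected EA + EB − EA·EB, EA and EB being single-agent effects.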

[1] = tested on: AsPC-1 (Pancreatic Carcinoma)
Method in brief: as §1

[2] = tested on: BALL-1 (B-Lymphoblastic Leukemia)
Method in brief: as §1

[3] = tested on: Becker (Low Grade Glioma)
Method in brief: as §1

[4] = tested on: FLO-1 (Esophageal Adenocarcinoma)
Method in brief: as §1

[5] = tested on: HSC-3 (Oral Cavity Carcinoma)
Method in brief: as §1

HuO-3N1 (Osteosarcoma) = tested on: HuO-3N1 (Osteosarcoma)
Method in brief: as §1

[6] = tested on: KYSE-70 (Esophageal Squamous Cell Carcinoma)
Method in brief: as §1

[7] = tested on: LAMA-84 (Chronic Myelogenous Leukemia)
Method in brief: as §1

[8] = tested on: LOUCY (T-Lymphoblastic Leukemia)
Method in brief: as §1

[9] = tested on: NCI-H1155 (Non-Small Cell Lung Carcinoma)
Method in brief: as §1

[10] = tested on: NCI-H1563 (Lung Adenocarcinoma)
Method in brief: as §1

[11] = tested on: NCI-H1623 (Lung Adenocarcinoma)
Method in brief: as §1

[12] = tested on: NCI-H1755 (Lung Adenocarcinoma)
Method in brief: as §1

[13] = tested on: NCI-H810 (Non-Small Cell Lung Carcinoma)
Method in brief: as §1

[14] = tested on: PC-14 (Lung Adenocarcinoma)
Method in brief: as §1

[15] = tested on: RERF-LC-KJ (Lung Adenocarcinoma)
Method in brief: as §1

[16] = tested on: RPMI-8866 (Chronic Myelogenous Leukemia)
Method in brief: as §1

RT4 (Bladder Carcinoma) = tested on: RT4 (Bladder Carcinoma)
Method in brief: as §1

[17] = tested on: SK-MM-2 (Plasma Cell Myeloma)
Method in brief: as §1

Row | SMILES | Bliss excess (786-0 (Kidney Carcinoma)) | Bliss excess [1] | Bliss excess [2] | Bliss excess [3] | Bliss excess [4] | Bliss excess [5] | Bliss excess (HuO-3N1 (Osteosarcoma)) | Bliss excess [6] | Bliss excess [7] | Bliss excess [8] | Bliss excess [9] | Bliss excess [10] | Bliss excess [11] | Bliss excess [12] | Bliss excess [13] | Bliss excess [14] | Bliss excess [15] | Bliss excess [16] | Bliss excess (RT4 (Bladder Carcinoma)) | Bliss excess [17]
1 | COc1cccc(OCCCN)c1-c1cc(Nc2cnc(C#N)cn2)n[nH]1 [Prexasertib] + C=CCn1c(=O)c2cnc(Nc3ccc(N4CCN(C)CC4)cc3)nc2n1-c1cccc(C(C)(C)O)n1 [AZD1775] (first compound max 1 µM, partner max 1 µM) | 0.0707 | -0.0189 | 0.0618 | 0.0374 | 0.0488 | 0.121 | 0.122 | 0.0874 | 0.0731 | 0.0578 | 0.0998 | -0.0101 | 0.0519 | -0.0104 | 0.0869 | 0.0069 | 0.0487 | 0.0591 | 0.128 | 0.0085
2 | COc1cccc(OCCCN)c1-c1cc(Nc2cnc(C#N)cn2)n[nH]1 [Prexasertib] + CCc1c2c(nc3ccc(O)cc13)-c1cc3c(c(=O)n1C2)COC(=O)[C@]3(O)CC [SN-38] (first compound max 1 µM, 7x7, partner max 0.3 µM) | -0.0368 | -0.0333 | -0.016 | -0.0716 | 0.0153 | -0.0455 | -0.0105 | 0.0907 | -0.0066 | 0.0103 | -0.0161 | -0.0111 | -0.0364 | -0.0057 | 0.0967 | -0.0169 | 0.0513 | 0.0104 | -0.0055 | -0.0714
3 | COc1cccc(OCCCN)c1-c1cc(Nc2cnc(C#N)cn2)n[nH]1 [Prexasertib] + CN(C)CCCOc1ccc(-c2ccc3ncc4c(c3c2)n(C2CCOCC2)c(=O)n4C)cn1 [AZD0156] (first compound max 1 µM, 7x7, partner max 1 µM) | -0.0576 | 0.0303 | 0.0043 | -0.0203 | -0.056 | -0.0322 | 0.0092 | -0.0233 | -0.0219 | 0.0036 | -0.0753 | -0.0416 | -0.0206 | -0.011 | -0.0327 | -0.0284 | -0.0159 | -0.009 | 0.0482 | -0.0392
4 | COc1cccc(OCCCN)c1-c1cc(Nc2cnc(C#N)cn2)n[nH]1 [Prexasertib] + C[C@@H]1COCCN1C2=NC(=NC(=C2)C3(CC3)[S@](=N)(=O)C)C4=C5C=CNC5=NC=C4 [AZD6738] (first compound max 1 µM, 7x7, partner max 10 µM) | -0.0219 | 0.0292 | -0.001 | -0.0317 | -0.0233 | 0.0351 | 0.0204 | 0.0378 | -0.0052 | -0.0009 | -0.0438 | -0.0878 | -0.0745 | -0.0534 | -0.0519 | -0.047 | -0.0002 | 0.0633 | 0.0645 | -0.0348
5 | COc1cccc(OCCCN)c1-c1cc(Nc2cnc(C#N)cn2)n[nH]1 [Prexasertib] + Cc1cc2ncnn2cc1Nc1ncc2c(n1)n(C1CCOCC1)c(=O)n2C [AZD7648] (first compound max 1 µM, 7x7, partner max 10 µM) | -0.0276 | -0.0242 | 0.0202 | -0.0081 | -0.0817 | -0.0096 | -0.0498 | -0.0383 | -0.0208 | -0.0021 | 0.0039 | -0.0146 | -0.0588 | -0.0249 | 0.0108 | -0.037 | 0.0558 | 0.0455 | -0.0045 | -0.0512
6 | COc1cccc(OCCCN)c1-c1cc(Nc2cnc(C#N)cn2)n[nH]1 [Prexasertib] + O=C(c1cc(Cc2n[nH]c(=O)c3ccccc23)ccc1F)N1CCN(C(=O)C2CC2)CC1 [Olaparib] (first compound max 1 µM, 7x7, partner max 10 µM) | -0.0427 | -0.0956 | -0.0145 | -0.0257 | -0.0721 | -0.0093 | -0.0658 | -0.0248 | -0.0307 | -0.0422 | -0.0309 | -0.037 | -0.0777 | -0.0582 | -0.0082 | -0.0478 | -0.0597 | 0.0028 | 0.0044 | -0.011
